From patent publication US20220073536A1 (Rigel Pharmaceuticals, Inc., priority 2003, published 2022)
Structures can show the parent of a compound that is named as a salt.

Experiments:
[1] = test system: cultured human mast cells (CHMC); assay: CHMC low cell density ionomycin activation: tryptase assay; assay type: cell-based; details: 3 pt, read-out: LD Tryptase, CHMC, Iono, 3 pt
[2] = test system: cultured human mast cells (CHMC); assay: CHMC low cell density IgE activation: tryptase assay; assay type: cell-based; details: IgE activation
Summary of the method: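 CHMC at 1000–1500 cells/well were preincubated 1 hr at 37° C., stimulated with anti-IgE for 30 minutes at 37° C., then pelleted. Supernatant tryptase was measured with a fluorogenic substrate after 30 min at room temperature, against un-stimulated control wells.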

[3] = Homo sapiens, Mast cell, low cell density CHMC, tryptase release
[4] = Homo sapiens, Mast cell, low cell density CHMC, tryptase release, 3 pt, read-out: LD Tryptase, CHMC, IgE, 3 pt
[5] = Homo sapiens, Mast cell, low cell density CHMC, tryptase release, 8 pt, read-out: LD Tryptase, CHMC, IgE, 8 pt
[6] = Homo sapiens, Mast cell, low cell density
[7] = Homo sapiens, Mast cell, low cell density, 3 pt, read-out: LD Tryptase, CHMC, IgE, 3 pt
[8] = Homo sapiens, Mast cell, low cell density, 8 pt, read-out: LD Tryptase, CHMC, IgE, 8 pt
[9] = low cell density, 3 pt, read-out: LD Tryptase, CHMC, IgE, 3 pt

Compound: COCCCn1ncc2cc(Nc3ncc(F)c(Nc4ccc(Cl)c(Cl)c4)n3)ccc21 [Compound 793, N4-(3,4-Dichlorophenyl)-5-fluoro-N2-[1-(3-methoxypropyl)indazol-5-yl]-2,4-pyrimidinediamine]
- IC50 [1, 3]: > 10 µM
- IC50 [2, 4]: < 10 µM
- IC50 [2, 5]: < 10 µM

Compound: COCCCn1ncc2cc(Nc3ncc(F)c(Nc4ccc5c(c4)NC(=O)C(C)(C)O5)n3)ccc21 [Compound 794, N4-(2,2-Dimethyl-3-oxo-4H-benz[1,4]oxazin-6-yl)-5-fluoro-N2-[1-(3-methoxypropyl)indazol-5-yl]-2,4-pyrimidinediamine]
- IC50 [1, 3]: > 10 µM
- IC50 [2, 4]: < 10 µM
- IC50 [2, 5]: < 10 µM

Compound: COCCCn1ncc2cc(Nc3ncc(F)c(Nc4ccc5c(c4)NC(=O)[C@H](C)O5)n3)ccc21 [Compound 795, (S)-5-Fluoro-N2-[1-(3-methoxypropyl)indazol-5-yl]-N4-(2-methyl-3-oxo-2H,4H-benz[1,4]oxazin-6-yl)-2,4-pyrimidinediamine]
- IC50 [1, 3]: > 10 µM
- IC50 [2, 4]: < 10 µM
- IC50 [2, 5]: < 10 µM

Compound: COCCCn1ncc2ccc(Nc3ncc(F)c(Nc4ccc(OC)c(Cl)c4)n3)cc21 [Compound 796, N4-(3-Chloro-4-methoxyphenyl)-5-fluoro-N2-[1-(3-methoxypropyl)indazol-6-yl]-2,4-pyrimidinediamine]
- IC50 [1, 3]: > 10 µM
- IC50 [2, 4]: < 10 µM
- IC50 [2, 5]: < 10 µM

Compound: COCCCn1ncc2ccc(Nc3ncc(F)c(Nc4ccc(Cl)c(Cl)c4)n3)cc21 [Compound 797, N4-(3,4-Dichlorophenyl)-5-fluoro-N2-[1-(3-methoxypropyl)indazol-6-yl]-2,4-pyrimidinediamine]
- IC50 [1, 3]: > 10 µM
- IC50 [2, 4]: < 10 µM
- IC50 [2, 5]: < 10 µM

Compound: COCCCn1ncc2ccc(Nc3ncc(F)c(Nc4ccc5c(c4)NC(=O)C(C)(C)O5)n3)cc21 [Compound 798, N4-(2,2-Dimethyl-3-oxo-4H-benz[1,4]oxazin-6-yl)-5-fluoro-N2-[1-(3-methoxypropyl)indazol-6-yl]-2,4-pyrimidinediamine]
- IC50 [1, 3]: < 10 µM
- IC50 [2, 4]: < 10 µM
- IC50 [2, 5]: < 10 µM

Compound: COCCCn1ncc2ccc(Nc3ncc(F)c(Nc4ccc5c(c4)NC(=O)[C@H](C)O5)n3)cc21 [Compound 799, (S)-5-Fluoro-N2-[1-(3-methoxypropyl)indazol-6-yl]-N4-(2-methyl-3-oxo-2H,4H-benz[1,4]oxazin-6-yl)-2,4-pyrimidinediamine]
- IC50 [1, 3]: > 10 µM
- IC50 [2, 4]: < 10 µM
- IC50 [2, 5]: < 10 µM

Compound: CC1(C)Oc2ccc(Nc3nc(Nc4ccc5[nH]c(C(F)(F)F)nc5c4)ncc3F)cc2NC1=O [Compound 802, N4-(2,2-Dimethyl-3-oxo-4H-benz[1,4]oxazin-6-yl)-5-fluoro-N2-(2-trifluoromethyl-1H-benzimidazol-5-yl)-2,4-pyrimidinediamine]
- IC50 [1, 3]: > 10 µM
- IC50 [2, 4]: < 10 µM
- IC50 [2, 5]: < 10 µM

Compound: C[C@@H]1Oc2ccc(Nc3nc(Nc4ccc5[nH]c(C(F)(F)F)nc5c4)ncc3F)cc2NC1=O [Compound 803, (S)-5-Fluoro-N4-(2-methyl-3-oxo-2H,4H-benz[1,4]oxazin-6-yl)-N2-(2-trifluoromethyl-1H-benzimidazol-5-yl)-2,4-pyrimidinediamine]
- IC50 [1, 3]: > 10 µM
- IC50 [2, 4]: < 10 µM
- IC50 [2, 5]: < 10 µM

Compound: Cc1nc2ccc(Nc3ncc(F)c(Nc4ccc5c(c4)NC(=O)[C@H](C)O5)n3)cc2[nH]1 [Compound 811, (S)-5-Fluoro-N2-(2-methyl-3H-benzimidazol-5-yl)-N4-(2-methyl-3-oxo-2H,4H-benz[1,4]oxazin-6-yl)-2,4-pyrimidinediamine]
- IC50 [1, 3]: > 10 µM
- IC50 [2, 4]: < 10 µM
- IC50 [2, 5]: < 10 µM

Compound: COc1ccc(Nc2nc(Nc3ccc4c(cnn4CCCO)c3)ncc2F)cc1Cl [Compound 827, N4-(3-Chloro-4-methoxyphenyl)-5-fluoro-N2-[1-(3-hydroxypropyl)indazol-5-yl]-2,4-pyrimidinediamine p-Toluenesulfonic Acid Salt]
- IC50 [1, 3]: > 10 µM
- IC50 [2, 4]: < 10 µM

Compound: COc1ccc(Nc2nc(Nc3ccc4c(cnn4CCCNS(C)(=O)=O)c3)ncc2F)cc1Cl [Compound 832, N4-(3-Chloro-4-methoxyphenyl)-5-fluoro-N2-[1-[3-(N-methylsulfonylamino)propyl]indazol-5-yl]-2,4-pyrimidinediamine]
- IC50 [1, 3]: > 10 µM
- IC50 [2, 4]: < 10 µM
- IC50 [2, 5]: < 10 µM

Compound: CS(=O)(=O)NCCCn1ncc2cc(Nc3ncc(F)c(Nc4ccc(Cl)c(Cl)c4)n3)ccc21 [Compound 833, N4-(3,4-Dichlorophenyl)-5-fluoro-N2-[1-[3-(N-methylsulfonylamino)propyl]indazol-5-yl]-2,4-pyrimidinediamine]
- IC50 [1, 3]: > 10 µM
- IC50 [2, 4]: < 10 µM
- IC50 [2, 5]: < 10 µM

Compound: CC1(C)Oc2ccc(Nc3nc(Nc4ccc5c(cnn5CCCNS(C)(=O)=O)c4)ncc3F)cc2NC1=O [Compound 834, N4-(2,2-Dimethyl-3-oxo-4H-benz[1,4]oxazin-6-yl)-5-fluoro-N2-[1-[3-(N-methylsulfonylamino)propyl]indazol-5-yl]-2,4-pyrimidinediamine]
- IC50 [1, 3]: > 10 µM
- IC50 [2, 4]: > 10 µM
- IC50 [2, 5]: < 10 µM

Compound: C[C@@H]1Oc2ccc(Nc3nc(Nc4ccc5c(cnn5CCCNS(C)(=O)=O)c4)ncc3F)cc2NC1=O [Compound 835, (S)-5-Fluoro-N4-(2-methyl-3-oxo-2H,4H-benz[1,4]oxazin-6-yl)-N2-[1-(3-(N-methylsulfonylamino)propyl)indazol-5-yl]-2,4-pyrimidinediamine]
- IC50 [1, 3]: > 10 µM
- IC50 [2, 4]: < 10 µM
- IC50 [2, 5]: < 10 µM

Compound: CC1(C)Oc2ccc(Nc3nc(Nc4ccc5c(cnn5CCCNS(C)(=O)=O)c4)ncc3F)nc2NC1=O [Compound 836, N4-(2,2-Dimethyl-3-oxo-4H-5-pyrid[1,4]oxazin-6-yl)-5-fluoro-N2-[1-[3-(N-methylsulfonylamino)propyl]indazol-5-yl]-2,4-pyrimidinediamine]
- IC50 ([1]; low cell density CHMC, tryptase release): > 10 µM
- IC50 ([2]; low cell density CHMC, tryptase release, 3 pt, read-out: LD Tryptase, CHMC, IgE, 3 pt): < 10 µM
- IC50 ([2]; low cell density CHMC, tryptase release, 8 pt, read-out: LD Tryptase, CHMC, IgE, 8 pt): < 10 µM

Compound: Cc1nc2ccc(Nc3ncc(F)c(Nc4ccc5c(n4)NC(=O)C(C)(C)O5)n3)cc2[nH]1 [Compound 845, N4-(2,2-Dimethyl-3-oxo-4H-5-pyrid[1,4]oxazin-6-yl)-5-fluoro-N2-(2-methyl-3H-benzimidazol-5-yl)-2,4-pyrimidinediamine]
- IC50 [1, 3]: < 10 µM
- IC50 [2, 5]: < 10 µM

Compound: CC1(C)Oc2ccc(Nc3nc(Nc4ccc5[nH]c(C(F)(F)F)nc5c4)ncc3F)nc2NC1=O [Compound 846, N4-(2,2-Dimethyl-3-oxo-4H-5-pyrid[1,4]oxazin-6-yl)-5-fluoro-N2-(2-trifluoromethyl-1H-benzimidazol-5-yl)-2,4-pyrimidinediamine]
- IC50 [1, 3]: < 10 µM
- IC50 [2, 5]: < 10 µM

Compound: Cn1ncc2ccc(Nc3ncc(F)c(Nc4ccc5c(c4)NC(=O)C(C)(C)O5)n3)cc21 [Compound 993, N4-(2,2-Dimethyl-3-oxo-4H-benz[1,4]oxazin-6-yl)-5-fluoro-N2-(1-methylindazol-6-yl)-2,4-pyrimidinediamine p-Toluenesulfonic Acid Salt]
- IC50 [1, 6]: < 10 µM
- IC50 [2, 7]: < 10 µM
- IC50 [2, 8]: < 10 µM

Compound: Cc1cc(Nc2ncc(F)c(Nc3ccc4c(c3)OCCO4)n2)cc(Cl)c1O [Compound 995, N2-(3-Chloro-4-hydroxy-5-methylphenyl)-N4-(3,4-ethylenedioxyphenyl)-5-fluoro-2,4-pyrimidinediamine]
- IC50 [1, 6]: < 10 µM
- IC50 [2, 7]: < 10 µM
- IC50 [2, 8]: < 10 µM

Compound: Cc1cc(Nc2ncc(F)c(Nc3ccc4c(n3)NC(=O)C(C)(C)O4)n2)cc(Cl)c1O [Compound 996, N2-(3-Chloro-4-hydroxy-5-methylphenyl)-N4-(2,2-dimethyl-3-oxo-4H-5-pyrid[1,4]oxazin-6-yl)-5-fluoro-2,4-pyrimidinediamine]
- IC50 ([1]; low cell density): > 10 µM
- IC50 [2, 9]: < 10 µM
- IC50 ([2]; low cell density, 8 pt, read-out: LD Tryptase, CHMC, IgE, 8 pt): < 10 µM

Compound: COc1c(C)cc(Nc2ncc(F)c(Nc3ccc4c(n3)NC(=O)C(C)(C)O4)n2)cc1C [Compound 997, N2-(3,5-Dimethyl-4-methoxyphenyl)-N4-(2,2-dimethyl-3-oxo-4H-5-pyrid[1,4]oxazin-6-yl)-5-fluoro-2,4-pyrimidinediamine]
- IC50 [1, 6]: > 10 µM
- IC50 [2, 7]: < 10 µM
- IC50 [2, 8]: < 10 µM

Compound: COc1c(C)cc(Nc2ncc(F)c(Nc3ccc4c(c3)OCCO4)n2)cc1C [Compound 998]
- IC50 [1, 6]: > 10 µM
- IC50 [2, 7]: < 10 µM
- IC50 [2, 8]: < 10 µM

Compound: COc1c(C)cc(Nc2ncc(F)c(Nc3ccc4c(c3)OCCO4)n2)cc1Cl [Compound 999]
- IC50 [1, 6]: < 10 µM
- IC50 [2, 7]: < 10 µM
- IC50 [2, 8]: < 10 µM

Compound: Cc1ccccc1Nc1ncc(F)c(Nc2ccc3c(n2)NC(=O)C(C)(C)O3)n1 [Compound 1004, N4-(2,2-Dimethyl-3-oxo-4H-5-pyrid[1,4]oxazin-6-yl)-5-fluoro-N2-(2-methylphenyl)-2,4-pyrimidinediamine]
- IC50 ([1]; low cell density): > 10 µM
- IC50 [2, 9]: < 10 µM

Compound: CN1C(=O)C(C)(C)Oc2ccc(N(C)c3nc(Cl)ncc3F)nc21 [Compound 1005, 2-Chloro-5-fluoro-N4-methyl-N4-(3-oxo-2,2,4-trimethyl-5-pyrid[1,4]oxazin-6-yl)-4-pyrimidineamine]
- IC50 ([1]; low cell density): > 10 µM
- IC50 [2, 9]: < 10 µM

Compound: CN1C(=O)C(C)(C)Oc2ccc(Nc3nc(Cl)ncc3F)nc21 [Compound 1006, 2-Chloro-5-fluoro-N4-(3-oxo-2,2,4-trimethyl-5-pyrid[1,4]oxazin-6-yl)-4-pyrimidineamine]
- IC50 ([1]; low cell density): > 10 µM
- IC50 [2, 9]: > 10 µM
